Type in all cases: cell-based
Assay [1] concerns human aortic endothelial cells (HAEC). Nature of the assay: NO release determination (Griess method). The following applies: nitrite in culture supernatant; RAD16-I 100%, others 9:1 blend. As to the method: NO release determination. Nitric oxide (NO) release was estimated by measuring nitrites (NOx) by the Griess method. Briefly, the media was replaced after the third day of culture by new media without fetal bovine serum (FBS) or ascorbic acid. The next day, the media was used to analyze NO release using a commercially available kit (482702, Calbiochem, CA) following the manufacturer instructions. Each condition was tested in triplicate.
On the technique in general: Griess reagent forms a coloured azo dye with nitrite.

For assay [2] the test system is unchanged. Nature of the assay: HAEC monolayer formation on peptide scaffolds. On the set-up: key to HAEC monolayer formation, peptide content 100% / HAEC monolayer formation, Blending (9:1): +: Score for optimal monolayer formation and cell survival; −: Score for poor or none monolayer formation and cell survival. As to the method:
Endothelial cell culture system. Peptide scaffolds (0.5% w/v) were prepared at 100% peptide sequence for RAD16-I or blended with RAD16-I at a radio of 9:1 (RAD16-I: peptide sequence, on a volume/volume basis) for the three other cases (YIG, RYV, and TAG). Each solution was filtered (0.2 μm, Acrodysc filters, 4192, PALL, MI), loaded (30 μl) on top of a cell culture chamber insert (10 mm diameter, 136935, Nalge Nunc International, IL), and allowed to form a layer (average thickness=600 μm). Phosphate Buffer Saline (PBS) (600 μl) was added at the bottom of the well to induce hydrogel formation, and the system was incubated at room temperature for 30 min. PBS was replaced with culture medium, which was then replaced with fresh medium. The scaffolds were incubated for 1 hour with endothelial cell growth media (EGM-2, Cambrex, MD) in a cell culture incubator at 37° C. with 5% CO2.
(§1) Meanwhile, human aortic endothelial cells (HAEC) (CC-2535, Cambrex, MD) that had been maintained under standard culture conditions (passage 5-6) were harvested at 80% confluence using trypsin and loaded on top of the preformed peptide scaffolds at a cell density of 8×10^4 cells/cm^2 and cultured in the cell culture incubator at 37° C. with 5% CO2. Cell attachment assays were performed one hour after the initial cell loading. To perform the assays, the covering media was removed, and unattached cells were counted on a hematocytometer. Cell counting was performed by mechanically disrupting the scaffold containing cells by pipetting up and down and then counting cells on a hematocytometer after performing Trypan blue (T 9906, Sigma, MO) exclusion assay staining to assess cell viability. In some experiments, for comparison, EC were cultured on inserts coated with Matrigel or collagen (1.5 mg/ml, i.e. 0.15%) according to standard protocols.
In a first experiment, we tested the ability of HAEC to attach and form a monolayer when seeded on various peptide scaffolds generated by self-assembly of the peptides following addition of PBS to a 0.5%(w/v) solution of the peptide in water. […] HAEC cultured in the presence of scaffolds generated from peptides incorporating the other biologically active peptide motifs either died or formed isolated clusters (FIGS. 9A-9G).
We therefore decided to blend the peptides incorporating biologically active motifs with the prototypic RAD16-I sequence in order to reduce the overall concentration of the biologically active motif presented to cells. We selected a volume/volume ratio of 9:1 (RAD16-I:modified peptide sequence comprising biologically active peptide motif, where peptides were dissolved at equal concentrations on a w/w basis) and generated peptide scaffolds from solutions in which the unmodified and modified peptides were present in this ratio.

Assay [3] shares this test system. Nature of the assay: HAEC attachment assay on peptide scaffolds. The following applies: after one hour; modified peptides as 9:1 blends with RAD16-I. The procedure:
as §1

In the case of `CC(=O)N[C@@H](CCCNC(=N)N)C(=O)N[C@@H](C)C(=O)N[C@@H](CC(=O)O)C(=O)N[C@@H](C)C(=O)N[C@@H](CCCNC(=N)N)C(=O)N[C@@H](C)C(=O)N[C@@H](CC(=O)O)C(=O)N[C@@H](C)C(=O)N[C@@H](CCCNC(=N)N)C(=O)N[C@@H](C)C(=O)N[C@@H](CC(=O)O)C(=O)N[C@@H](C)C(=O)N[C@@H](CCCNC(=N)N)C(=O)N[C@@H](C)C(=O)N[C@@H](CC(=O)O)C(=O)N[C@@H](C)C(N)=O` [RAD16-I, AcN-(RADA)4-CONH2], the “nitric oxide (NO) release by HAEC” value in assay [1] is “promote NO release”. Besides, the “HAEC monolayer formation, scaffold of 100% peptide” value in assay [2] (0.5% (w/v) peptide, no blending) is listed as “monolayer formation was observed”. For the same compound, the “HAEC monolayer formation and cobblestone morphology on gel systems” value in assay [2] (after 3 days in culture) is “less than on blended scaffolds or on Matrigel or collagen-I”. The “HAEC monolayer formation, peptide content 100%” value in assay [2] (scaffold of 100% peptide, 0.5% (w/v)) was “+¶”. The “HAEC attachment to the surface” value in assay [3] is given as roughly 100%.

Values taken from patent US7713923B2, “Self-assembling peptides incorporating modifications and methods of use thereof” (Massachusetts Institute of Technology, priority 2003, dated 2010).
